This passage reports Activity and GI50 results from ChEMBL document CHEMBL1146791, “Synthesis of nitrated indenoisoquinolines as topoisomerase I inhibitors” (2004).

Experiment [1] deals with T1, DNA topoisomerase 1 (Homo sapiens) (UniProt P11387).
T1 sequence (whole entry): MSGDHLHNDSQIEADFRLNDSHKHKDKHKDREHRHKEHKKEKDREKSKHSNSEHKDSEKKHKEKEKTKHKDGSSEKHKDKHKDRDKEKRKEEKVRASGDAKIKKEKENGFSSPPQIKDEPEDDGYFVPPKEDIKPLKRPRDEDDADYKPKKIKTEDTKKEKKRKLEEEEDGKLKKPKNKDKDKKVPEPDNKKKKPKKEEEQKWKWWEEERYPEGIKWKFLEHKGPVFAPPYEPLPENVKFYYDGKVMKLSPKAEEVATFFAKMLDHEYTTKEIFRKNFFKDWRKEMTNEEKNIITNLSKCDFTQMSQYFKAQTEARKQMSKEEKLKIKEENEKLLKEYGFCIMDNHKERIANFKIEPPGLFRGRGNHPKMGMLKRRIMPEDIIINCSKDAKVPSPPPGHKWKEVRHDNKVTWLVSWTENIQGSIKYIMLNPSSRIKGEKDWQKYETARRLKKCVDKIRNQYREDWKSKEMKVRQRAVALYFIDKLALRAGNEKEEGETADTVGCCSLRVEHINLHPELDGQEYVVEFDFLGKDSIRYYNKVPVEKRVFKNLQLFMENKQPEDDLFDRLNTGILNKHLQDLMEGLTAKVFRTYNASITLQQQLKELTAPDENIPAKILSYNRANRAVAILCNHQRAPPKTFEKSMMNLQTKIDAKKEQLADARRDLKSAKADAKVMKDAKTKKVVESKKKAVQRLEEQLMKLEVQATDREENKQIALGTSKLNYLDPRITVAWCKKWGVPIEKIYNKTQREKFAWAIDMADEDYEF
The experiment can be described thus: Inhibitory activity against DNA topoisomerase I cleavage was determined at a concentration ranging up to 10uM; '+' indicates weak activity.

The test system of a further experiment is SF-268. Nature of the experiment: Cytotoxicity against SF-268 human CNS cancer cell line was determined. The format is functional.
The next experiment relates to UACC-62. Nature of the experiment: Cytotoxicity against UACC-62 human melanoma cancer cell line was determined. The format is functional.
The subject of a further experiment is HOP-62. Nature of the experiment: Cytotoxicity against HOP-62 human lung cancer cell line was determined. The format is functional.
For the next experiment, the system named is MDA-MB-435. The experiment can be described thus: Cytotoxicity against MDA-MB-435 human breast cancer cell line was determined. In kind it is functional.
In a further experiment the test system is DU-145. Nature of the experiment: Cytotoxicity against DU-145 human prostate cancer cell line was determined. In kind it is functional.
The test system of another experiment is OVCAR-3. The experiment can be described thus: Cytotoxicity against OVCAR-3 human ovarian cancer cell line was determined. In kind it is functional.
For a further experiment, the system named is SN12C. Nature of the experiment: Cytotoxicity against SN12C human renal cancer cell line was determined. In kind it is functional.
The subject of the next experiment is HCT-116. The experiment can be described thus: Cytotoxicity against HCT116 human colon cancer cell line was determined. The format is functional.
In experiment [2] the target is T1, DNA topoisomerase 1 (Homo sapiens). Nature of the experiment: Inhibitory activity against DNA topoisomerase I cleavage was determined at a concentration ranging up to 10 uM; ''+/-'' No description in the article.
Experiment [3] has the same target. The experiment can be described thus: Inhibitory activity against DNA topoisomerase I cleavage was determined at a concentration ranging up to 10 uM; ''+++'' indicates greater activity than the parent compound 25. Also noted: scale not given here.
For experiment [4] the target is unchanged. Nature of the experiment: Inhibitory activity against DNA topoisomerase I cleavage was determined at a concentration ranging up to 10 uM.
Experiment [5] has the same target. Nature of the experiment: Inhibitory activity against DNA topoisomerase I cleavage was determined at a concentration ranging up to 10 uM; NT- Not tested.
Experiment [6] shares this target. Nature of the experiment: Inhibitory activity against DNA topoisomerase I cleavage was determined at a concentration ranging uM camptothecin.

A word on the GI50: it is the concentration at which growth is held to half of that of the control. On to `O=C1c2cc3c(cc2[C@@H]2[C@H]1c1ccc([N+](=O)[O-])cc1C(=O)N2CCCCl)OCO3`, for which the Activity result in experiment [1] is “weak activity”. The GI50 in the experiment on SF-268, with UACC-62, in the experiment on HOP-62, in the experiment with MDA-MB-435, in the experiment on DU-145 and with OVCAR-3 was below 10 nM each time. For the same molecule, the GI50 with SN12C and in the experiment with HCT-116 was below 10 nM each time.
As for `O=C1c2ccccc2-c2c1c1ccccc1c(=O)n2CCCBr`, the GI50 in the experiment on SF-268 was determined as 4610 nM. For the same molecule, the Activity entry in experiment [2] is given as “+/-”.
For the molecule `O=C1c2cc3c(cc2[C@@H]2[C@H]1c1ccc([N+](=O)[O-])cc1C(=O)N2CCCBr)OCO3`, in experiment [1], the Activity entry is “weak activity”. For the same molecule, the GI50 with SF-268, in the experiment with UACC-62, in the experiment on HOP-62, in the experiment on MDA-MB-435, in the experiment with DU-145 and in the experiment with OVCAR-3 was below 10 nM in each case. Besides, the GI50 in the experiment on SN12C and in the experiment on HCT-116 was below 10 nM in each case.
In the case of `NCCCn1c2c(c3ccccc3c1=O)C(=O)c1ccccc1-2`, the Activity entry in [3] is “++”. In addition, the GI50 in the experiment on UACC-62 worked out at 260 nM; in the experiment with MDA-MB-435 it was 780 nM; in the experiment with DU-145 it was 220 nM; with OVCAR-3 it was 1380 nM; in the experiment on SN12C, 160 nM; in the experiment on HCT-116 it was 180 nM.
For the molecule `[N-]=[N+]=NCCCn1c2c(c3ccc([N+](=O)[O-])cc3c1=O)C(=O)c1ccccc1-2`, the GI50 was 79400 nM in the experiment with SF-268; 44700 nM in the experiment on UACC-62; above 100000 nM in the experiment on HOP-62; above 100000 nM in the experiment with MDA-MB-435; above 100000 nM with DU-145; 72400 nM in the experiment with SN12C. Also, halving of growth in the experiment with HCT-116 (GI50) required 8130 nM.
In the case of `NCCCn1c2c(c3ccc([N+](=O)[O-])cc3c1=O)C(=O)c1ccccc1-2`, the GI50 was 302 nM with SF-268; 372 nM with UACC-62; 275 nM in the experiment with HOP-62; 148 nM with DU-145; 102 nM in the experiment with SN12C; 85 nM in the experiment with HCT-116.
With `O=C1c2ccccc2-c2c1c1ccc([N+](=O)[O-])cc1c(=O)n2CCCCl`, the GI50 with SF-268 was 23400 nM; with UACC-62, 20400 nM; in the experiment on HOP-62, 43700 nM; in the experiment with MDA-MB-435 it was 31600 nM; with DU-145, 40700 nM; in the experiment on OVCAR-3, 4900 nM. For the same molecule, the GI50 with SN12C stood at 26900 nM; in the experiment with HCT-116, 3630 nM.
On to `COc1cc2c3c(n(CCCN)c(=O)c2cc1OC)-c1cc2c(cc1C3=O)OCO2`, for which the Activity result in experiment [3] was “++”.
For the molecule `COc1cc2c3c(n(C)c(=O)c2cc1OC)-c1cc2c(cc1C3=O)OCO2`, the GI50 in the experiment with UACC-62 was 4200 nM; in the experiment with HOP-62 it was 1300 nM; in the experiment on MDA-MB-435 it was 96000 nM; in the experiment with DU-145 it was 37000 nM; with SN12C, 68000 nM; in the experiment with HCT-116, 35000 nM.
As to `Nc1ccc2c3c(n(CCCCl)c(=O)c2c1)-c1cc2c(cc1C3=O)OCO2`, the GI50 in the experiment on SF-268, in the experiment on UACC-62, in the experiment on MDA-MB-435, in the experiment with OVCAR-3 and in the experiment with SN12C was above 100000 nM in each case. The Activity in experiment [4] was 0.
Regarding `O=C1c2ccccc2-c2c1c1ccc([N+](=O)[O-])cc1c(=O)n2CCCBr`, in experiment [5], the Activity was 0. Moreover, the GI50 with SF-268, in the experiment on UACC-62, in the experiment with MDA-MB-435, in the experiment with DU-145, in the experiment on OVCAR-3 and with SN12C was above 100000 nM each time. Besides, the GI50 with HCT-116 was 3450 nM.
In the case of `[N-]=[N+]=NCCCn1c2c(c3ccc([N+](=O)[O-])cc3c1=O)C(=O)c1cc3c(cc1-2)OCO3`, the Activity result in [6] was “+++”. Besides, the GI50 with SF-268, with UACC-62, in the experiment with HOP-62, in the experiment on MDA-MB-435, with DU-145 and in the experiment with OVCAR-3 was below 10 nM each time. For the same molecule, the GI50 in the experiment with SN12C and with HCT-116 was below 10 nM throughout.
Regarding `CN1C(=O)c2cc([N+](=O)[O-])ccc2[C@H]2C(=O)c3cc4c(cc3[C@H]21)OCO4`, the Activity entry in experiment [3] was “++”. For the same molecule, the GI50 in the experiment with SF-268 worked out at 24 nM; in the experiment on UACC-62, 26 nM; in the experiment on HOP-62 it was 158 nM; in the experiment on MDA-MB-435, 107 nM; in the experiment on DU-145, 50 nM; in the experiment on OVCAR-3, 30 nM. Also, the figures for the GI50 in the experiment with SN12C and in the experiment with HCT-116 were 33 nM and 14 nM, respectively.
As to `[N-]=[N+]=NCCCn1c2c(c3ccccc3c1=O)C(=O)c1ccccc1-2`, the GI50 amounted to 19500 nM in the experiment on UACC-62; 7590 nM with HOP-62; 7760 nM in the experiment with MDA-MB-435; 44700 nM in the experiment with DU-145; 7940 nM with OVCAR-3; 25100 nM in the experiment on SN12C. This molecule also gave a GI50 in the experiment on HCT-116 of 4900 nM.
Consider `O=C1c2cc3c(cc2-c2c1c1ccc([N+](=O)[O-])cc1c(=O)n2CCCCl)OCO3`, for which the Activity entry in experiment [3] was “++”. Besides, the 50% growth inhibitory concentration (GI50) was found to be 148 nM with SF-268; 229 nM in the experiment with UACC-62; 410 nM with HOP-62; 1820 nM in the experiment on MDA-MB-435; 98 nM with DU-145; 9120 nM with OVCAR-3. Further, the values for the GI50 in the experiment with SN12C and in the experiment on HCT-116 were 132 nM and 2400 nM, respectively.
Regarding `NCCCn1c2c(c3ccc([N+](=O)[O-])cc3c1=O)C(=O)c1cc3c(cc1-2)OCO3`, the Activity result in [6] is “+++”. Further, the GI50 with SF-268 is below 10 nM; in the experiment on UACC-62, 17 nM; in the experiment on HOP-62 it was below 10 nM; in the experiment on MDA-MB-435, 25 nM; in the experiment on DU-145, below 10 nM; in the experiment with OVCAR-3 it was 302 nM. Further, the GI50 in the experiment with SN12C and in the experiment on HCT-116 was below 10 nM throughout.
With `COc1cc2c(cc1OC)[C@H]1C(=O)c3cc4c(cc3[C@H]1N(CCCBr)C2=O)OCO4`, the Activity result in [1] is “weak activity”. Also, the GI50 is 50 nM in the experiment on UACC-62; 120 nM in the experiment on HOP-62; 150 nM with MDA-MB-435; 30 nM with DU-145; 400 nM in the experiment on OVCAR-3; 30 nM in the experiment on SN12C. The same molecule registered a GI50 in the experiment on HCT-116 of 70 nM.
For `NCCCn1c2c(c3ccccc3c1=O)C(=O)c1cc3c(cc1-2)OCO3`, the Activity result in experiment [1] is “weak activity”.
